Source: patent US20220348563A1, “KDM INHIBITORS AND USES THEREOF” (DANA-FARBER CANCER INSTITUTE, INC., priority 2019, published 2022)

molecular target: T1, KDM3A (Homo sapiens, UniProt Q9Y4C1); test: KDM3 AlphaScreen assay (Table 2, ASSAY 9); format: biochemical; conditions: ASSAY 9
T1 sequence (Q9Y4C1 1-1321): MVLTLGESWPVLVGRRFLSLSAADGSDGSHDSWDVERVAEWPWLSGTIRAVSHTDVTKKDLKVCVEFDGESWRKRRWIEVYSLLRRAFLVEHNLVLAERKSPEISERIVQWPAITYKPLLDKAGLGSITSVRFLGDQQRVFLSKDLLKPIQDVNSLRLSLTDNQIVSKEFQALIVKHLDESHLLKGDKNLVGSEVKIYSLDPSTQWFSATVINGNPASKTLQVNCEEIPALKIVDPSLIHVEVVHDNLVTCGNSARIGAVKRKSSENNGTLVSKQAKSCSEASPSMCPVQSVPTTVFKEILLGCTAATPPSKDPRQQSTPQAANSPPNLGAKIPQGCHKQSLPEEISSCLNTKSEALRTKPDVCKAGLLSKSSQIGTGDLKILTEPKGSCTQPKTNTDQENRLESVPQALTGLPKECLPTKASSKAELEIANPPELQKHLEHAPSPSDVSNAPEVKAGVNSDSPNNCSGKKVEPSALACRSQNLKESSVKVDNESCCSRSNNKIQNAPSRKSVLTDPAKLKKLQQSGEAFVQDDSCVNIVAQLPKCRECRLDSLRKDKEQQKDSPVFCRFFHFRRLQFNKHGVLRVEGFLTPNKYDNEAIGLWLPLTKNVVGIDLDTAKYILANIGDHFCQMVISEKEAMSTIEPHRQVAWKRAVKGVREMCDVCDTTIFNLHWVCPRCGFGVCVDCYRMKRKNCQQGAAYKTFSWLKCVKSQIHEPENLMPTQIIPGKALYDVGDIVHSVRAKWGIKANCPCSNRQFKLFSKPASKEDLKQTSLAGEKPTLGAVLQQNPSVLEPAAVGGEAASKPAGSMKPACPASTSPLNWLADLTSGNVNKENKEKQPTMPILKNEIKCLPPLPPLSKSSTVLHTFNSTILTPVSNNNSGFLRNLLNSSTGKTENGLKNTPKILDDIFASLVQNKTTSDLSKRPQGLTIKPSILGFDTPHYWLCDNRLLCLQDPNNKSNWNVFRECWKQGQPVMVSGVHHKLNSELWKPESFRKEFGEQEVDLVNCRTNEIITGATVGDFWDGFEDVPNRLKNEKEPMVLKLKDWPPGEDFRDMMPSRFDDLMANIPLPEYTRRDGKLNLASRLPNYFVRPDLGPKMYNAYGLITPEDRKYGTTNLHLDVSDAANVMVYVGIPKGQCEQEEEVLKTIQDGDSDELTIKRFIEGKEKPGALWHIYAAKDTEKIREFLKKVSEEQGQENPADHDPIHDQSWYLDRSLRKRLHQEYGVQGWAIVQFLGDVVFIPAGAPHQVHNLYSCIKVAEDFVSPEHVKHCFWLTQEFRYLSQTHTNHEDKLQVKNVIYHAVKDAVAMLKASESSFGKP
Method: AlphaScreen assays were performed in 384-well plate format using white AlphaPlate™ (PerkinElmer®, USA), and transfer of pre-diluted compound (100 nL) was performed using a Janus® Workstation (PerkinElmer®, USA). All subsequent steps were carried out in assay buffer (50 mM 4-(2-hydroxyethyl)-1-piperazineethanesulfonic acid (HEPES), pH 7.5, 0.1% (wt/vol) bovine serum albumin (BSA) and 0.01% (vol/vol) Tween®20). In brief, 10 μL of assay buffer containing demethylase enzyme (2 nM Final) was pre-incubated for 15 min with dilutions of compound. The enzyme reaction was initiated by the addition of substrate (5 μL) consisting of L-ascorbic acid (100 μM Final), […] (OG) (5 μM Final), FAS (10 μM Final) and histone H3(1-21)K9Me3-GGK Biotin (100 nM Final). The enzyme reaction was allowed to proceed for 30 minutes and was stopped by the addition of 5 μL of assay buffer containing ethylenediaminetetraacetic acid (EDTA) (40 mM) and NaCl (1,200 mM). The final concentration of DMSO was 1%. Streptavidin donor beads (0.08 mg/ml) and protein-A-conjugated acceptor beads (0.08 mg/ml) were preincubated for 1 h with antibody to methyl mark (300 ng/mL Final), and the presence of histone H3 product methyl mark was detected using the preincubated AlphaScreen™ beads (5 μL). Detection was allowed to proceed for 2 h at room temperature, and the assay plates were read on the EnVision® 2104 plate reader. Data were normalized to the (no-enzyme) control, and the IC50 values were determined via nonlinear regression curve fit using GraphPad Prism 7.

In order of falling IC50:
1. COc1ccc(S(=O)(=O)Nc2ccc(F)cc2C(=O)N2CCC(Oc3ccc(-c4ccc(N(C)C)cc4)cn3)CC2)cc1OC [KDM3-60]  35 µM
2. CN(C)c1ccc(CCC(=O)Nc2ccc(OC(F)(F)F)cc2C(=O)N2CCC(Oc3ccc(-c4ccc(N(C)C)cc4)cn3)CC2)cc1 [KDM3-59, 3-(4-(dimethylamino)phenyl)-N-(2-(4-((5-(4-(dimethylamino)phenyl)pyridin-2-yl)oxy)piperidine-1-carbonyl)-4-(trifluoromethoxy)phenyl)propanamide]  23.6 µM
3. CN(C)c1ccc(CCC(=O)Nc2ccc(C(F)(F)F)cc2C(=O)N2CCC(Oc3ccc(-c4ccc(N(C)C)cc4)cn3)CC2)cc1 [KDM3-53, 3-(4-(dimethylamino)phenyl)-N-(2-(4-((5-(4-(dimethylamino)phenyl)pyridin-2-yl)oxy)piperidine-1-carbonyl)-4-(trifluoromethyl)phenyl)propanamide]  20 µM
